What was measured:
Experiment in all cases: SRB assay, IMT combined with inhibitor
Format in all cases: cell-based
LOVO = LOVO (colon); concentration series of the labelled inhibitor + fixed concentration of IMT (3S)-1-[(2R)-2-[4-(2-chloro-4-fluoro-phenyl)-2-oxo-chromen-7-yl]oxypropanoyl]piperidine-3-carboxylic acid (Table 3: 40 nM, 120 h); negative=synergistic, positive=antagonistic
Protocol: (§1) Solforhodamine B assay is carried out as described in Voigt W. (2005) Sulforhodamine B Assay and Chemosensitivity. (Methods in Molecular Medicine™, vol 110. Humana Press. https://doi.org/10.1385/1-59259-869-2:039).
(§2) The determination of changes in cellular biomass was based on the Solforhodamine B assay format, carried out as described in Voigt W. (2005) Sulforhodamine B Assay and Chemosensitivity. (Methods in Molecular Medicine™, vol 110. Humana Press. https://doi.org/10.1385/1-59259-869-2:039).
(§3) All in vitro cell culture experiments were carried out under near physiological glucose concentrations (5 mM) in at least two independent replicates.
(§4) First, 30 different cell lines from 14 different tissue types were tested in the SRB assay format. The cells were examined individually for changes in growth over a period of 120 hours with dilution series of both inhibitors. Untreated cells were used as a negative control group. Subsequently, a dilution series of the respective MAPK signalling pathway SOCs was treated in combination with a fixed concentration of 40 nM (3S)-1-[(2R)-2-[4-(2-chloro-4-fluoro-phenyl)-2-oxo-chromen-7-yl]oxypropanoyl]piperidine-3-carboxylic acid.

NCIH460 = NCIH460 (lung); concentration series of the labelled inhibitor + fixed concentration of IMT (3S)-1-[(2R)-2-[4-(2-chloro-4-fluoro-phenyl)-2-oxo-chromen-7-yl]oxypropanoyl]piperidine-3-carboxylic acid (Table 3: 40 nM, 120 h); negative=synergistic, positive=antagonistic
Protocol: as §1, §2, §3, §4

SKOV3 = SKOV3 (ovary); concentration series of the labelled inhibitor + fixed concentration of IMT (3S)-1-[(2R)-2-[4-(2-chloro-4-fluoro-phenyl)-2-oxo-chromen-7-yl]oxypropanoyl]piperidine-3-carboxylic acid (Table 3: 40 nM, 120 h); negative=synergistic, positive=antagonistic
Protocol: as §1, §2, §3, §4

SKMEL28 = SKMEL28 (skin); concentration series of the labelled inhibitor + fixed concentration of IMT (3S)-1-[(2R)-2-[4-(2-chloro-4-fluoro-phenyl)-2-oxo-chromen-7-yl]oxypropanoyl]piperidine-3-carboxylic acid (Table 3: 40 nM, 120 h); negative=synergistic, positive=antagonistic
Protocol: as §1, §2, §3, §4

HT29 = HT29 (colon); concentration series of the labelled inhibitor + fixed concentration of IMT (3S)-1-[(2R)-2-[4-(2-chloro-4-fluoro-phenyl)-2-oxo-chromen-7-yl]oxypropanoyl]piperidine-3-carboxylic acid (Table 3: 40 nM, 120 h); negative=synergistic, positive=antagonistic
Protocol: as §1, §2, §3, §4

A549 = A549 (lung); concentration series of the labelled inhibitor + fixed concentration of IMT (3S)-1-[(2R)-2-[4-(2-chloro-4-fluoro-phenyl)-2-oxo-chromen-7-yl]oxypropanoyl]piperidine-3-carboxylic acid (Table 3: 40 nM, 120 h); negative=synergistic, positive=antagonistic
Protocol: as §1, §2, §3, §4

PANC1 = PANC1 (pancreas); concentration series of the labelled inhibitor + fixed concentration of IMT (3S)-1-[(2R)-2-[4-(2-chloro-4-fluoro-phenyl)-2-oxo-chromen-7-yl]oxypropanoyl]piperidine-3-carboxylic acid (Table 3: 40 nM, 120 h); negative=synergistic, positive=antagonistic
Protocol: as §1, §2, §3, §4

KASUMI-1 = KASUMI-1 (hematological); concentration series of the labelled inhibitor + fixed concentration of IMT (3S)-1-[(2R)-2-[4-(2-chloro-4-fluoro-phenyl)-2-oxo-chromen-7-yl]oxypropanoyl]piperidine-3-carboxylic acid (Table 3: 40 nM, 120 h); negative=synergistic, positive=antagonistic
Protocol: as §1, §2, §3, §4

MIAPACA2 = MIAPACA2 (pancreas); concentration series of the labelled inhibitor + fixed concentration of IMT (3S)-1-[(2R)-2-[4-(2-chloro-4-fluoro-phenyl)-2-oxo-chromen-7-yl]oxypropanoyl]piperidine-3-carboxylic acid (Table 3: 40 nM, 120 h); negative=synergistic, positive=antagonistic
Protocol: as §1, §2, §3, §4

MV4-11 = MV4-11 (hematological); concentration series of the labelled inhibitor + fixed concentration of IMT (3S)-1-[(2R)-2-[4-(2-chloro-4-fluoro-phenyl)-2-oxo-chromen-7-yl]oxypropanoyl]piperidine-3-carboxylic acid (Table 3: 40 nM, 120 h); negative=synergistic, positive=antagonistic
Protocol: as §1, §2, §3, §4

IMR90 = IMR90 (lung); concentration series of the labelled inhibitor + fixed concentration of IMT (3S)-1-[(2R)-2-[4-(2-chloro-4-fluoro-phenyl)-2-oxo-chromen-7-yl]oxypropanoyl]piperidine-3-carboxylic acid (Table 3: 40 nM, 120 h); negative=synergistic, positive=antagonistic
Protocol: as §1, §2, §3, §4

JAR = JAR (placenta); concentration series of the labelled inhibitor + fixed concentration of IMT (3S)-1-[(2R)-2-[4-(2-chloro-4-fluoro-phenyl)-2-oxo-chromen-7-yl]oxypropanoyl]piperidine-3-carboxylic acid (Table 3: 40 nM, 120 h); negative=synergistic, positive=antagonistic
Protocol: as §1, §2, §3, §4

U2OS = U2OS (bone); concentration series of the labelled inhibitor + fixed concentration of IMT (3S)-1-[(2R)-2-[4-(2-chloro-4-fluoro-phenyl)-2-oxo-chromen-7-yl]oxypropanoyl]piperidine-3-carboxylic acid (Table 3: 40 nM, 120 h); negative=synergistic, positive=antagonistic
Protocol: as §1, §2, §3, §4

SW620 = SW620 (colon); concentration series of the labelled inhibitor + fixed concentration of IMT (3S)-1-[(2R)-2-[4-(2-chloro-4-fluoro-phenyl)-2-oxo-chromen-7-yl]oxypropanoyl]piperidine-3-carboxylic acid (Table 3: 40 nM, 120 h); negative=synergistic, positive=antagonistic
Protocol: as §1, §2, §3, §4

HEPG2 = HEPG2 (liver); concentration series of the labelled inhibitor + fixed concentration of IMT (3S)-1-[(2R)-2-[4-(2-chloro-4-fluoro-phenyl)-2-oxo-chromen-7-yl]oxypropanoyl]piperidine-3-carboxylic acid (Table 3: 40 nM, 120 h); negative=synergistic, positive=antagonistic
Protocol: as §1, §2, §3, §4

Compound	difference between the calculated combinatorial index (BLISS) and the observed combinatorial effect (LOVO)	difference between the calculated combinatorial index (BLISS) and the observed combinatorial effect (NCIH460)	difference between the calculated combinatorial index (BLISS) and the observed combinatorial effect (SKOV3)	difference between the calculated combinatorial index (BLISS) and the observed combinatorial effect (SKMEL28)	difference between the calculated combinatorial index (BLISS) and the observed combinatorial effect (HT29)	difference between the calculated combinatorial index (BLISS) and the observed combinatorial effect (A549)	difference between the calculated combinatorial index (BLISS) and the observed combinatorial effect (PANC1)	difference between the calculated combinatorial index (BLISS) and the observed combinatorial effect (KASUMI-1)	difference between the calculated combinatorial index (BLISS) and the observed combinatorial effect (MIAPACA2)	difference between the calculated combinatorial index (BLISS) and the observed combinatorial effect (MV4-11)	difference between the calculated combinatorial index (BLISS) and the observed combinatorial effect (IMR90)	difference between the calculated combinatorial index (BLISS) and the observed combinatorial effect (JAR)	difference between the calculated combinatorial index (BLISS) and the observed combinatorial effect (U2OS)	difference between the calculated combinatorial index (BLISS) and the observed combinatorial effect (SW620)	difference between the calculated combinatorial index (BLISS) and the observed combinatorial effect (HEPG2)
O=C(NOC[C@H](O)CO)c1ccc(F)c(F)c1Nc1ccc(I)cc1F [PD 0325901, (R)—N-(2,3-dihydroxypropoxy)-3,4-difluoro-2-((2-fluoro-4-iodophenyl)amino)benzamide]	−0.0229	0.0200	−0.0555	0.0303	0.0786	−0.0245	0.1000	−0.0286	0.0500	0.0637	0.0387	0.0256	0.0014	0.0316	0.0334
CC(=O)Nc1cccc(-n2c(=O)n(C3CC3)c(=O)c3c(Nc4ccc(I)cc4F)n(C)c(=O)c(C)c32)c1 [Trametinib]	−0.0287	0.0180	−0.0444	0.0296	0.0338	−0.0142	0.0596	−0.0377	0.1602	0.0747	0.0533	0.0230	−0.0358	0.0028	0.0351
CC(C)(C)c1nc(-c2cccc(NS(=O)(=O)c3c(F)cccc3F)c2F)c(-c2ccnc(N)n2)s1 [Dabrafenib]	−0.0384	−0.0275	0.0282	0.0194	0.0360	−0.0892	0.0029	−0.0274	0.0508	0.0205	−0.0104	0.0431	−0.0418	−0.0699	−0.1427
O=C(c1cc(Cc2n[nH]c(=O)c3ccccc23)ccc1F)N1CCN(C(=O)C2CC2)CC1 [Olaparib]	−0.0819	−0.0377	0.0092	−0.0624	0.0068	0.0174	−0.0430	−0.0415	0.0529	0.0407	0.0084	0.0294	−0.0034	0.0198	−0.0439

Source: patent US20240252454A1, “COMPOSITION COMPRISING AN INHIBITOR OF MITOCHONDRIAL TRANSCRIPTION” (LEAD DISCOVERY CENTER GMBH, priority 2021, published 2024)
